The values below are quoted from earlier work in patent publication US20210251906A1, “[…]-RELEASE FORMULATIONS” (Mylan Inc., priority 2018, published 2021).

The conditions of data set [1]: in water and in basic and acidic aqueous solutions.
The conditions of data set [2]: in vivo.

Each structure is given as a SMILES string.

Turning to `CC(C)C[C@H](CN)CC(=O)O` [Pregabalin, (S)-3-(aminomethyl)-5-methylhexanoic acid], the Solubility result in data set [1] is on record as “freely soluble”. In data set [2], the Elimination half-life entry is reported as “about 6.3 hours”.
